Laboratory results from US7056903B2, “Carboxylic acid derivatives as IP antagonists” (Syntex (U.S.A.) LLC, priority 2000, dated 2006).

Q: Which melting point does the source give for `O=C(NC(Cc1ccccc1)C(=O)O)OCCCc1ccc(-c2ccccc2)cc1` (stereo not drawn) [Compound 143, 2-(3-biphenyl-4-yl-propoxycarbonylamino)-3-phenyl-propionic acid] here?
A: 139.1 to 139.9 °C

Q: Which melting point does the source give for `Cn1cc(C[C@@H](NC(=O)OCc2ccc(-c3ccccc3)cc2)C(=O)O)c2ccccc21` [Compound 145, (R)-2-(biphenyl-4-ylmethoxycarbonylamino)-3-(1-methyl-1H-indol-3-yl)-propionic acid] here?
A: 156.7 to 157.2 °C

Q: Which melting point does the source give for `CCn1cc(CC(NC(=O)OCc2ccc(-c3ccccc3)cc2)C(=O)O)c2ccccc21` (stereo not drawn) [Compound 147, 2-(biphenyl-4-ylmethoxycarbonylamino)-3-(1-ethyl-1Hindol-3-yl)-propionic acid] here?
A: 136.8 to 138.5 °C

Q: For `CC(C)n1cc(CC(NC(=O)OCc2ccc(-c3ccccc3)cc2)C(=O)O)c2ccccc21` (stereo not drawn) [Compound 148, 2-(biphenyl-4-ylmethoxycarbonylamino)-3-(1-isopropyl-1H-indol-3-yl)-propionic acid], which melting point is on record?
A: 143.1 to 144.8 °C

Q: Which melting point does the source give for `Cn1cc(C[C@@H](NC(=O)OCc2ccc(-c3ccccc3)cc2)C(=O)O)c2ccccc2c1=O` [Compound 149, (R)-2-(biphenyl-4-ylmethoxycarbonylamino)-3-(2-methyl-1-oxo-1,2-dihydro-isoquinolin-4-yl)-propionic acid] here?
A: 215 to 217 °C

Q: For `O=C(N[C@H](Cc1nc2ccccc2[nH]1)C(=O)O)OCc1ccc(-c2ccccc2)cc1` [Compound 150, (R)-3-(1H-benzoimidazol-2-yl)-2-(biphenyl-4-ylmethoxycarbonylamino)-propionic acid], which melting point is on record?
A: 243 to 245 °C

Q: For `O=C(N[C@H](Cc1ccccc1)C(=O)O)OCc1ccc(COc2cccc3ncccc23)cc1` [Compound 152, (R)-3-phenyl-2-[4-(quinolin-5-yloxymethyl)-benzyloxycarbonylamino]-propionic acid], which melting point is on record?
A: 189.4 to 189.8 °C

Q: For `O=C(N[C@H](Cc1ccccc1)C(=O)O)OCc1ccc(Cn2ccc3ccccc32)cc1` [Compound 153, (R)-2-(4-indol-1-ylmethyl-benzyloxycarbonylamino)-3-phenyl-propionic acid], which melting point is on record?
A: 122 to 125 °C

Q: Which melting point does the source give for `O=C(NC(Cc1ccccc1)C(=O)O)OCc1ccc(COc2ccc(Cl)cc2)cc1` (stereo not drawn) [Compound 155, 2-[4-(4-chloro-phenoxymethyl)-benzyloxycarbonylamino]-3-phenyl-propionic acid] here?
A: 122 to 123.1 °C

Q: For `O=C(N[C@H](Cc1ccc(F)cc1)C(=O)O)OCc1ccc2oc(-c3ccc(F)cc3)nc2c1` [Compound 157, (R)-3-(4-fluoro-phenyl)-2-[2-(4-fluoro-phenyl)-benzoxazol-5-ylmethoxycarbonylamino]-propionic acid], which melting point is on record?
A: 197.1 to 198.7 °C

Q: With `O=C(N[C@H](Cc1ccccc1)C(=O)O)OCc1ccc2oc(-c3ccc(F)cc3)nc2c1` [Compound 158, (R)-2-[2-(4-fluoro-phenyl)-benzoxazol-5-ylmethoxycarbonylamino]-3-phenyl-propionic acid] as the compound, how does the melting point read?
A: 208.2 to 208.5 °C

Q: With `N#Cc1cccc(-c2nc3cc(COC(=O)N[C@H](Cc4ccc(F)cc4)C(=O)O)ccc3o2)c1` [Compound 159, (R)-2-[2-(3-cyano-phenyl)-benzoxazol-5-ylmethoxycarbonylamino]-3-(4-fluoro-phenyl)-propionic acid] as the compound, how does the melting point read?
A: 208.5 to 209.2 °C

Q: Which melting point does the source give for `O=C(N[C@H](Cc1ccc(F)cc1)C(=O)O)OCc1ccc2oc(-c3cc(F)cc(F)c3)nc2c1` [Compound 160, (R)-2-[2-(3,5-difluoro-phenyl)-benzoxazol-5-ylmethoxycarbonylamino]-3-(4-fluoro-phenyl)-propionic acid] here?
A: 196.2 to 197.7 °C

Q: With `O=C(N[C@H](Cc1ccccc1)C(=O)O)OCc1ccc2oc(-c3cccc4[nH]ccc34)nc2c1` [Compound 161, (R)-2-[2-(1H-indol-4-yl)-benzoxazol-5-ylmethoxycarbonylamino]-3-phenyl-propionic acid] as the compound, how does the melting point read?
A: 187 to 189 °C

Q: With `O=C(N[C@H](Cc1ccccc1)C(=O)O)OCc1ccc2oc(-c3cc(F)cc(F)c3)nc2c1` [Compound 162, (R)-2-[2-(3,5-difluoro-phenyl)-benzoxazol-5-ylmethoxycarbonylamino]-3-phenyl-propionic acid] as the compound, how does the melting point read?
A: 193.8 to 195 °C

Q: For `O=C(NC(Cc1ccncc1)C(=O)O)OCc1cc2cc(-c3ccccc3)ccc2o1` (stereo not drawn) [Compound 163, 2-(5-phenyl-benzofuran-2-ylmethoxycarbonylamino)-3-pyridin-4-yl-propionic acid], which melting point is on record?
A: 219 to 220 °C

Q: With `O=C(NC(Cc1cccnc1)C(=O)O)OCc1cc2cc(-c3ccccc3)ccc2o1` (stereo not drawn) [Compound 164, 2-(5-Phenyl-benzofuran-2-ylmethoxycarbonylamino)-3-pyridin-3-yl-propionic acid] as the compound, how does the melting point read?
A: 164 to 169 °C

Q: Which melting point does the source give for `O=C(NC(Cc1cnccn1)C(=O)O)OCc1cc2cc(-c3ccccc3)ccc2o1` (stereo not drawn) [Compound 165, 2-(5-phenyl-benzofuran-2-ylmethoxycarbonylamino)-3-pyrazin-2-yl-propionic acid] here?
A: 144.9 to 146 °C

Q: Which melting point does the source give for `O=C(NC(Cc1cccnn1)C(=O)O)OCc1cc2cc(-c3ccccc3)ccc2o1` (stereo not drawn) [Compound 167, 2-(5-phenyl-benzofuran-2-ylmethoxycarbonylamino)-3-pyridazin-3-yl-propionic acid] here?
A: 174.7 to 175 °C

Q: For `O=C(NC(Cc1ccccc1)C(=O)O)OCc1ccc(CCCc2ccccc2)cc1` (stereo not drawn) [Compound 168, 3-Phenyl-2-[4-(3-phenyl-propyl)-benzyloxycarbonylamino]-propionic acid], which melting point is on record?
A: 134.8 to 135.2 °C

Q: Which melting point does the source give for `Cn1cc(C[C@@H](NC(=O)OCc2ccc(COc3ccccc3)cc2)C(=O)O)c2ccccc21` [Compound 170, (R)-3-(1-methyl-1H-indol-3-yl)-2-(4-phenoxymethyl-benzyloxycarbonylamino)-propionic acid] here?
A: 79.9 to 82.6 °C

Q: For `O=C(NC(Cc1cccc(NS(=O)(=O)c2ccccc2)c1)C(=O)O)OCc1cc2cc(-c3ccccc3)ccc2o1` (stereo not drawn) [Compound 171, 3-(3-Benzenesulfonylamino-phenyl)-2-(5-phenyl-benzofuran-2-ylmethoxycarbonylamino)-propionic acid], which melting point is on record?
A: 105 to 108 °C

Q: Which melting point does the source give for `O=C(NC(Cc1ccccc1)C(=O)O)OCc1coc2ccc(-c3ccccc3)cc12` (stereo not drawn) [Compound 172, 2-(5-Phenyl-benzofuran-3-ylmethoxycarbonylamino)-3-phenyl-propionic acid] here?
A: 177.6 to 178.6 °C

Q: With `O=C(NC(Cc1cncnc1)C(=O)O)OCc1cc2cc(-c3ccccc3)ccc2o1` (stereo not drawn) [Compound 173, 2-(5-phenyl-benzofuran-2-ylmethoxycarbonylamino)-3-pyrimidin-5-yl-propionic acid] as the compound, how does the melting point read?
A: 181.4 to 184.5 °C

Q: For `O=C(NC(Cc1ccccc1)C(=O)O)OCc1cc2cc(-c3ccncc3)ccc2o1` (stereo not drawn) [Compound 174, 3-phenyl-2-(5-pyridin-4-yl-benzofuran-2-ylmethoxycarbonylamino)-propionic acid], which melting point is on record?
A: 119 to 121 °C

Q: Which melting point does the source give for `O=C(NC(Cc1ccccc1)C(=O)O)OCc1cc2cc(-c3cncnc3)ccc2o1` (stereo not drawn) [Compound 175, 3-phenyl-2-(5-pyrimidin-5-yl-benzofuran-2-ylmethoxycarbonylamino)-propionic acid] here?
A: 192 to 192.5 °C

Q: Which melting point does the source give for `O=C(NC(Cc1ccncc1)C(=O)O)OCc1cc2cc(-c3ccc(F)cc3)ccc2o1` (stereo not drawn) [Compound 176, 2-[5-(4-fluoro-phenyl)-benzofuran-2-ylmethoxycarbonylamino]-3-pyridin-4-yl-propionic acid] here?
A: 255.2 to 255.7 °C

Q: With `O=C(NC(Cc1ccc(F)cc1)C(=O)O)OCc1cc2cc(-c3cc(Cl)cc(Cl)c3)ccc2o1` (stereo not drawn) [Compound 177, 2-[5-(3,5-dichloro-phenyl)-benzofuran-2-ylmethoxycarbonylamino]-3-(4-fluoro-phenyl)-propionic acid] as the compound, how does the melting point read?
A: 101.1 to 103.2 °C

Q: For `O=C(NC(CNc1ccccc1)C(=O)O)OCc1ccc(-c2ccccc2)cc1` (stereo not drawn) [Compound 179, 2-(biphenyl-4-ylmethoxycarbonylamino)-3-phenylamino-propionic acid], which melting point is on record?
A: 143 to 146 °C

Q: For `COc1ccc(NCC(NC(=O)OCc2ccc(-c3ccccc3)cc2)C(=O)O)cc1` (stereo not drawn) [Compound 180, 2-(biphenyl-4-ylmethoxycarbonylamino)-3-(4-methoxy-phenylamino)-propionic acid], which melting point is on record?
A: 152.6 to 154.8 °C

Q: Which melting point does the source give for `O=C(NC(Cc1ccccc1)C(=O)O)OCc1ccc(NC(=O)c2ccccc2)cc1` (stereo not drawn) [Compound 181, 2-(4-benzoylamino-benzyloxycarbonylamino)-3-phenyl-propionic acid] here?
A: 196.9 to 198.1 °C

Q: With `O=C(NC(Cc1ccccc1)C(=O)O)OCc1ccc(C#Cc2ccccc2)cc1` (stereo not drawn) [Compound 182, 3-phenyl-2-(4-phenylethynyl-benzyloxycarbonylamino)-propionic acid] as the compound, how does the melting point read?
A: 172.1 to 173.4 °C

Q: With `O=C(NC(Cc1ccccc1)C(=O)O)OCc1ccc(CSc2ccccc2)cc1` (stereo not drawn) [Compound 183, 3-phenyl-2-(4-phenylsulfanylmethyl-benzyloxycarbonylamino)-propionic acid] as the compound, how does the melting point read?
A: 113.3 to 114.1 °C
